Here are results for six compounds from patent US7390819B2 (Altana Pharma AG, priority 2003, dated 2008).

Structures are written as SMILES.

In the experiment the target is T1, human inducible NO-synthase (Homo sapiens, UniProt P35228).
T1 construct: host or cells: crude cytosolic fraction
T1 sequence (P35228 whole entry): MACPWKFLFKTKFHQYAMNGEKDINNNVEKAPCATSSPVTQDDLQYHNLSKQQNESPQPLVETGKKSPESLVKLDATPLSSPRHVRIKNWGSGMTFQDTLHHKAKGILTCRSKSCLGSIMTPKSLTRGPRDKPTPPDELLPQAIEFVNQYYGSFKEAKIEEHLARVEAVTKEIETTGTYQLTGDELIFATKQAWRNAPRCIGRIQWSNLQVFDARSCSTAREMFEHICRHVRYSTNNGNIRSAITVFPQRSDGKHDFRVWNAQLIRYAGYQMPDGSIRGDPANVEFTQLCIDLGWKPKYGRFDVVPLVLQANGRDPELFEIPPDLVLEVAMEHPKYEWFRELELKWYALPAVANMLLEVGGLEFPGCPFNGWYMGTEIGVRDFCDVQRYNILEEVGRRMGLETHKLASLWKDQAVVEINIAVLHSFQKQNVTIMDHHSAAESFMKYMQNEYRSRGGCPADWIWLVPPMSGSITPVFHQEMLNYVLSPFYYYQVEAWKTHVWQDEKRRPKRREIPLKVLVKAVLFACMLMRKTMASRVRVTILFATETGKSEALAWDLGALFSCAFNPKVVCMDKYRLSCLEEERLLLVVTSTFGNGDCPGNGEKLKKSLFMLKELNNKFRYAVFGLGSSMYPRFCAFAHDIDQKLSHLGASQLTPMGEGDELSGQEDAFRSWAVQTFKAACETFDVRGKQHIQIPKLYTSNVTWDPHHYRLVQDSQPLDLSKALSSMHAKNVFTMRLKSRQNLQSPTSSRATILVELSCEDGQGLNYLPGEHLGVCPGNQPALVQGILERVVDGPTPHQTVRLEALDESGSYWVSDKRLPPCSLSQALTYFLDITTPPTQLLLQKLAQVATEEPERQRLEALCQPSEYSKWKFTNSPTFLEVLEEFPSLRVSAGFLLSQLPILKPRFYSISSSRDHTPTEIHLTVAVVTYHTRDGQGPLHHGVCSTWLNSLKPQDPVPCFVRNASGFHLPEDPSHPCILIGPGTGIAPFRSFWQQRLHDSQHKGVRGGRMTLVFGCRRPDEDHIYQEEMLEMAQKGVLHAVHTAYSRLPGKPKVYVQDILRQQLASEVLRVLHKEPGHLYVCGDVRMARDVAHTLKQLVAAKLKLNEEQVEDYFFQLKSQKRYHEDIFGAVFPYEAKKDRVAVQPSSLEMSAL
Nature of the experiment: Measurement of inducible NO-synthase activity ([3H]arginine conversion). The class given is biochemical. Particulars: crude cytosolic fraction containing human inducible NO-synthase; 0.1 μM arginine; 45 to 60 min at 37° C.; read-out: Inhibition of INOS activity [measured as −logIC50 (mol/l)] (converted). On the procedure: Measurement of Inducible NO-synthase Activity
The assay is performed in 96-well microliter F-plates (Greiner, Frickenhausen, FRG) in a total volume of 100 μl in the presence of 100 nM calmodulin, 226 μM CaCl2, 477 μM MgCl2, 5 μM flavin-adenine-dinucleotide (FAD), 5 μM flavin mononucleotide (FMN), 0.1 mM NADPH, 7 mM glutathione, 10 μM BH4 and […] pH 7.2. Arginine concentrations are 0.1 μM for enzyme inhibition experiments. 150000 dpm of [^3H]arginine are added to the assay mixture. Enzyme reaction is started by the addition of 4 μg of a crude cytosolic fraction containing human inducible NO-synthase and the reaction mixture is incubated for 45 to 60 min at 37° C. Enzyme reaction is stopped by adding 10 μl of 2M MES-buffer pH 5.0. 50 μl of the incubation mixture are transferred into a MADP N65 filtration microtiter plate (Millipore, Eschborn, FRG) containing already 50 μl of AG-50W-X8 cation exchange resin (Biorad, München, FRG). The resin in the Na loaded form is pre-equilibrated in water and 70 μl (corresponding to 50 μl dry beads) are pipetted under heavy stirring with a 8 channel pipette into the filtration plate. After pipetting 50 μl of the enzyme reaction mixture onto the filtration plates, the plates are placed on a filtration manifold (Porvair, Shepperton, UK) and the flow through is collected in Pico scintillation plates (Packard, Meriden, Conn.). The resin in the filtration plates is washed with 75 μl of water (1×50 μl and 1×25 μl) which is also collected in the same plate as the sample. The total flow through of 125 μl is mixed with 175 μl of Microscint-40 scintillation cocktail (Packard) and the scintillation plate is sealed with TopSeal P-foil (Packard). Scintillation plates are counted in a scintillation counter.
For the measurement of inducible NO-synthase-inhibiting potencies of compounds increasing concentrations of inhibitors were included into the incubation mixture. IC50-values were calculated from the percent inhibition at given concentrations by nonlinear least square fitting.
The inhibitory values determined for the compounds according to the invention follow from the following table A, in which the compound numbers correspond to the example numbers.
As to `COc1ccnc(CCc2nc3cc4ccccc4nc3[nH]2)c1` [compound 1, 2-[2-(4-Methoxypyridin-2-yl)ethyl]-3H-imidazo[4,5-b]quinoline], the IC50 was 0.0891 µM.

In the case of `COc1ccnc(CCc2nc3cc4cc(C)ccc4nc3[nH]2)c1` [compound 2, 2-[2-(4-Methoxypyridin-2-yl)ethyl]-7-methyl-3H-imidazo[4,5-b]quinoline], the IC50 is 0.117 µM.

For `COc1ccnc(CCc2nc3cc4cccc(C)c4nc3[nH]2)c1` [compound 3, 2-[2-(4-Methoxypyridin-2-yl)ethyl]-5-methyl-3H-imidazo[4,5-b]quinoline], the IC50 is 0.135 µM.

Consider `COc1ccnc(CCc2nc3cc4cc(OC)ccc4nc3[nH]2)c1` [compound 4, 7-Methoxy-2-[2-(4-methoxypyridin-2-yl)ethyl]-3H-imidazo[4,5-b]quinoline], for which the IC50 was 0.102 µM.

As to `COc1ccnc(CCc2nc3cc4cc(Br)ccc4nc3[nH]2)c1` [compound 5, 7-Bromo-2-[2-(4-methoxypyridin-2-yl)ethyl]-3H-imidazo[4,5-b]quinoline], the IC50 is 0.0776 µM.

Consider `COc1ccnc(CCc2nc3cc4cc(-c5ccc(CO)cc5)ccc4nc3[nH]2)c1` [compound 6], for which the IC50 was 0.363 µM.
